One compound from article PMC8844424, “Optimization, purification and characterization of laccase from Ganoderma leucocontextum along with its phylogenetic relationship” (Scientific Reports, 2022) can be followed below.

Each structure is given as a SMILES string.

This experiment has as its system Glacc110 (purified laccase of G. leucocontextum). Description: spectrophotometric oxidation assay at […] nm, Lineweaver-Burk plot. It counts as biochemical, Ganoderma leucocontextum. The following applies: 1-10 mM guaiacol, 100 mM citrate-phosphate buffer, pH 3.0; temperature not stated for kinetics.

Take `COc1ccccc1O` [guaiacol]: the Km (commonly the substrate concentration at which the rate is half of its maximum) is 1660 µM.
